Assays:
Mythimna separata [1] = test: Y-tube olfactometer bioassay (before RNAi); format: in vivo; conditions: for behavioral response in words: male and female moths; for behavioral response (attraction) of females: 3-day-old female moths; for behavioral response (attraction) of females / behavioral response (attraction) of males: 10 μl volatile vs liquid paraffin; for behavioral response (attraction) of males: 3-day-old male moths
Source text: Mythimna separata behavioral responses were examined by olfactometer bioassays ([Cao et al., 2015]) performed in a glass Y-tube (base = 4.0 cm diameter by 25 cm length, arms = 3.0 cm diameter by 26 cm length) using 10 different volatile compounds (Sigma-Aldrich).
Air entering the tube was passed through activated charcoal for filtration and humidified using deionised water. Filtered air was split between two chambers; one chamber containing liquid paraffin (used as control) and the other containing the test volatile. Each chamber was connected to one arm of the Y-tube. Airflow was kept constant at 6.0 l min^-1 throughout the experiment using an inline flow meter (Gilmont Instr., Barnant Co., Barrington, IL, United States). Orange light was used for this experiment. The whole experiment was conducted in a dark room, and the relative humidity and temperature were maintained at 70 ± 5% and 25 ± 1°C, respectively. A 10 μl of volatile compound was applied to 10 mm × 10 mm filter papers (Whatman No. 1) that was placed in the chamber connected to one arm of the Y-tube. A separate Y-tube was used for male and female moths.
To perform bioassays, a 3-day-old moth, either male or female, was released in the base of the Y-tube. Each insect was given 10 min to respond to the treatment, and the number of moths showing attraction, repulsion or no response was counted. Approximately 30 min before onset of the trial, male and female adults were placed into separate glass tubes (50 ml) and covered with a cotton plug to avoid exposure to tested volatiles. In total, 60 adults (30 male and 30 female) were tested per volatile compound, and χ^2 tests were applied to evaluate the number of M. separata individuals attracted to or repelled by volatiles.

MsepCSP8 = MsepCSP8 (Mythimna separata, UniProt A0A1V1WC03); test: Fluorescence competitive binding assay with 1-NPN as fluorescent probe; conditions: for IC50: displacement of 1-NPN; for Ki: calculated from IC50; for binding affinity to MsepCSP8 in words: discussion of Table 1, pH not stated
Chain of MsepCSP8 (A0A1V1WC03 entry or part of it): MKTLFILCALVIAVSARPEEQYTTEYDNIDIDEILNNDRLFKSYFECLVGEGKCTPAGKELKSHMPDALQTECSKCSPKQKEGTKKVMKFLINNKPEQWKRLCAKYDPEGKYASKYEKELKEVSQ
Method: The expressed protein was obtained in soluble form in the supernatant, and purification was accomplished using a Ni affinity chromatography column (GE Healthcare, Uppsala, Sweden). Bound protein was eluted by digestion with recombinant bovine enterokinase at 26°C for 15 h to remove the His-tag. Expression and purification were verified by 15% sodium dodecyl sulfate-polyacrylamide gel electrophoresis (SDS-PAGE), and protein concentration was measured as described by [Cao et al. (2017)]. Dialysis of purified protein was carried out in 30 mM Tris-HCl buffer [Tris(hydroxymethyl)aminomethane] at pH 7.4 and pH 5.0 before fluorescence binding assays, and protein was stored at -80°C until use.
Fluorescence competitive binding assays were performed to determine the binding affinity of MsepCSP8 for 56 ligands using N-phenyl-1-naphthylamine (1-NPN) as a fluorescent probe. Stock solutions of ligands were prepared in spectrophotometric-grade methanol. […] Mixtures of 1-NPN and protein were excited at 337 nm wavelength, and emission spectra were recorded from 360 to 600 nm using a fluorescence spectrophotometer (RF-5301PC Shimadzu, Kyoto, Japan). Binding of selected ligands with MsepCSP8 (1:1 protein:ligand stoichiometry) was evaluated using 1-NPN as a fluorescent probe, with the final concentration of the product ranging from 0 to 20 μM. […] Three independent measurements were made for all experiments. The binding affinity (Ki) of MsepCSP8 for all tested ligands was calculated based on IC50 values as follows:
Ki=IC50/(1 + [1−NPN]/K1–NPN)
where [1-NPN] is the free concentration of 1-NPN, and K1-NPN is the dissociation constant of the complex of MsepCSP8 and 1-NPN.

Mythimna separata [2] = test: Y-tube olfactometer bioassay after dsMsepCSP8 injection; format: in vivo; conditions: males and females, 3 days post-eclosion
Method: The dsRNA (500 nl of 10 ng nl^-1) was injected into 3rd and 4th abdominal segment of 7-day old pupae using a microinjector (World Precision Instruments Inc., Sarasota, FL, United States) under a microscope. After injection, pupae were kept in petri dishes until eclosion at 25 ± 1°C and 70 ± 5% relative humidity. Three treatments were set up for RNAi consisting of non-injected (controls), dsGFP-injected and dsRNA-injected (dsMsepCSP8) groups. After eclosion, adults from each treatment were kept in separate containers. Three individuals of each sex from all three treatments were taken at 1, 2, 3, 4, and 5 days post-eclosion for RNAi analysis. RT-qPCR was performed using the method described above.
Y-tube bioassays were performed both before and after RNAi application to confirm the MsepCSP8 gene silencing effect. Three treatments consisting of dsGFP-injected, dsRNA-injected (dsMsepCSP8), and controls were tested on both 3-day old male and female moths.

| Structure (SMILES) | behavioral response in words (Mythimna separata [1]) | IC50 (MsepCSP8; IC50, pH 5.0) | IC50 (MsepCSP8; IC50, pH 7.4) | Ki (MsepCSP8; pH 5.0) | Ki (MsepCSP8; pH 7.4) | binding affinity to MsepCSP8 in words (MsepCSP8) | behavioral response (attraction) of females (Mythimna separata [1]) | behavioral response (attraction) of males (Mythimna separata [1]) | behavioral responses of adults after dsMsepCSP8 injection (Mythimna separata [2]) |
| --- | --- | --- | --- | --- | --- | --- | --- | --- | --- |
| CC1=CCC(O)(C(C)C)CC1 (single isomer, unassigned; (-)) [(–)-Terpinen-4-ol] | repelled | 9.46 µM | 13.9 µM | 7.06 µM | 9.74 µM | high binding affinities | – | – | – |
| C=CC(O)CC (centres unmarked) [1-Penten-3-ol] | distinct preference | 22.2 µM | 9.27 µM | 16.6 µM | 6.5 µM | bound strongly | – | – | – |
| CCCCCCCCCCCC(C)=O [2-Tridecanone] | non-significant attraction | 7.75 µM | 9.07 µM | 5.78 µM | 6.37 µM | high affinity | – | – | – |
| CCCCCC=O [Hexanal] | – | – | – | – | – | – | 73.33% | 70% | not significantly affect |
| CCCCCCCC=O [Octanal] | non-significant response | 13.7 µM | 9.87 µM | 10.2 µM | 6.93 µM | high affinities | – | – | – |
| CC1=CCC(=C(C)C)CC1 [Terpinolene] | – | 27 µM | 8.82 µM | 20.1 µM | 6.19 µM | high binding affinities | 80% | 90% | not significantly affect |
| CCC/C=C/C=O [Trans-2-hexenal] | non-significant response | 8.85 µM | 12.5 µM | 6.6 µM | 8.8 µM | high affinities | – | – | – |
